Data on five compounds can be found in patent US20070149535A1, “Protein kinase inhibitors” (ONCALIS AG, priority 2004, published 2007).

Assay in all cases: Yeast growth assay, specificity profiling
Common to all, as to assay type: cell-based

One experiment concerns the target T1, EphB4 (Homo sapiens, UniProt P54760).
T1 construct: expressed in transfected cells; host or cells: yeast
T1 sequence (P54760 16-987): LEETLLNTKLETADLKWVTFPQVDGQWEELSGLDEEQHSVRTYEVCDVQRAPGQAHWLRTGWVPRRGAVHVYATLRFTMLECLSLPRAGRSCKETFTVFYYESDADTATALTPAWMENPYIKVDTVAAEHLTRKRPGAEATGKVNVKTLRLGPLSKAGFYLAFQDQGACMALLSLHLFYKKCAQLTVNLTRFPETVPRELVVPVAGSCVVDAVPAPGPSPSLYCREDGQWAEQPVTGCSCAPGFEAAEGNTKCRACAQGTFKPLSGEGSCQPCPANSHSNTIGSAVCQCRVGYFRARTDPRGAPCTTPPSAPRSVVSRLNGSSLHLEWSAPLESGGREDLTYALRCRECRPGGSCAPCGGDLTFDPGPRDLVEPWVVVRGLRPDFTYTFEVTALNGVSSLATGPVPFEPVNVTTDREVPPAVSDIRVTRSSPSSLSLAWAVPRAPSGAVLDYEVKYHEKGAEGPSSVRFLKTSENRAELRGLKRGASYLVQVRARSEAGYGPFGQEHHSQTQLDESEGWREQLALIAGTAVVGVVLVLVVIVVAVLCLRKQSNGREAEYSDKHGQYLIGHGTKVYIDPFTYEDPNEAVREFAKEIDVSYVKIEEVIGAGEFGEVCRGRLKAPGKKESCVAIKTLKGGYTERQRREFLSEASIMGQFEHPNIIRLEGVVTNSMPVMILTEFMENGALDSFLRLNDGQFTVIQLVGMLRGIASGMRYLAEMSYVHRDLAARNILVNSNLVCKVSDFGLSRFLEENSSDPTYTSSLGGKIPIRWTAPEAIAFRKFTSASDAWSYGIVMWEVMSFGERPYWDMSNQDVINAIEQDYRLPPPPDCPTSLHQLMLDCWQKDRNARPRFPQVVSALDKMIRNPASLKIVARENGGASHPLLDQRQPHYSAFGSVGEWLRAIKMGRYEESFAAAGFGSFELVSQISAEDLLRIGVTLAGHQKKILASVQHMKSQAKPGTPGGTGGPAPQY
More on the design: key: “−” indicates no growth restoration i.e. no activity against the particular kinase; “+”, “++”, and “+++” indicate activity detected by restoration of growth, classified into three categories of potency; “+”, “++”, and “+++” indicate activity detected by restoration of growth, classified into three categories of potency; “+”, “++”, and “+++” indicate activity detected by restoration of growth, classified into three categories of potency. The following applies: 7 concentrations between 0.2 and 100 μM. The gist of the method: (§1)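 Yeast carrying plasmids encoding the RTK were grown in glucose medium to repress expression, then diluted into galactose medium to induce the growth-inhibiting kinase. Compounds at 7 concentrations between 0.2 and 100 μM were scored for restoring growth, graded −/+/++/+++ by maximal growth restoration and the concentration reaching it.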

In another experiment the target is T2, EphA2 (Homo sapiens, UniProt P29317).
T2 construct: expressed in transfected cells; host or cells: yeast
T2 sequence (P29317 24-976): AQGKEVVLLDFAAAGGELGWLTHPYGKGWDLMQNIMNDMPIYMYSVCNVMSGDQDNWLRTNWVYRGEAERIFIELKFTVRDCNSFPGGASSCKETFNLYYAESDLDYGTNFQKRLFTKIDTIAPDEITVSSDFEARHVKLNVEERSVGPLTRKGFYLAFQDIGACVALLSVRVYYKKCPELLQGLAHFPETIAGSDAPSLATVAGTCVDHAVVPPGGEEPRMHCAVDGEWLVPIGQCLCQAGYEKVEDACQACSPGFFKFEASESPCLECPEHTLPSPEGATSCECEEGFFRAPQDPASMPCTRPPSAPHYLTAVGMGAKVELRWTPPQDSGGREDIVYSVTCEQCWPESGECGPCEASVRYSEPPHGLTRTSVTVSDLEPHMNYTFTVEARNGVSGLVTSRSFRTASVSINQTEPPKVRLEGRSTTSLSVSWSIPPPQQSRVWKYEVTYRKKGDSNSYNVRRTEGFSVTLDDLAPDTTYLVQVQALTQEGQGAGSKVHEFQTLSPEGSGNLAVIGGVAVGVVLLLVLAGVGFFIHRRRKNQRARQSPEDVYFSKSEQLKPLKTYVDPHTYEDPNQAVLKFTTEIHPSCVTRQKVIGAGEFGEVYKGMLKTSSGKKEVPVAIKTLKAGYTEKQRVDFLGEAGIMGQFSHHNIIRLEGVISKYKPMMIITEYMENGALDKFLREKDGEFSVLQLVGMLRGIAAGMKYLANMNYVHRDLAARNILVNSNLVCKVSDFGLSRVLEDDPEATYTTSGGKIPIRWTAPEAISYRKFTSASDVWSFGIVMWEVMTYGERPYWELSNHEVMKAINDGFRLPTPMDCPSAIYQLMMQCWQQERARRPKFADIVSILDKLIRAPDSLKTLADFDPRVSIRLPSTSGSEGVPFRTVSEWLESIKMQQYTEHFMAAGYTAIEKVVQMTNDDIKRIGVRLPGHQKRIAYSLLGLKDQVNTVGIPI
More on the design: key: “−” indicates no growth restoration i.e. no activity against the particular kinase; “+”, “++”, and “+++” indicate activity detected by restoration of growth, classified into three categories of potency; “+”, “++”, and “+++” indicate activity detected by restoration of growth, classified into three categories of potency; “+”, “++”, and “+++” indicate activity detected by restoration of growth, classified into three categories of potency. To be noted: 7 concentrations between 0.2 and 100 μM. The gist of the method:
as §1

The target of a further experiment is T3, EGFR (L858R) (Homo sapiens, UniProt P00533, L858R).
T3 construct: expressed in transfected cells; host or cells: yeast
More on the design: key: (+) in a different yeast background. To be noted: in a different yeast background. As for the experimental part: Specificity Profiling: Yeast Growth Assay
The yeast growth assay was performed as described in “Method for the identification and/or validation of receptor tyrosine kinase inhibitors” PCT/CH03/00694 (2004/10/24), section “Modes for Carrying out the Invention, Experiment 1 and Experiment 2.
Briefly, yeast cells carrying plasmids with the RTK of interest were grown in glucose containing medium (repressing expression). The cultures were diluted into galactose containing medium, which induces the expression of the kinase. Expression of the kinase inhibits growth of the yeast cells, which allows for positive selection of kinase inhibitors restoring growth of cells. Compounds were titrated at 7 concentrations between 0.2 and 100 μM.
Specificity profiling of compounds, using the yeast growth assay method described above. “−” indicates no growth restoration i.e. no activity against the particular kinase, “+”, “++”, and “+++” indicate activity detected by restoration of growth, classified into three categories of potency according to the maximal level of growth restoration reached and the concentration at which the maximal growth restoration is reached.
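Throughout, for EGFR (L858R) growth restoration: Parenthesized + marks a result obtained in a different yeast background.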

`Fc1ccc(Nc2c(-c3ccccc3)nc3cnccn23)cc1F` [compound 30, (3,4-Difluoro-phenyl)-(2-phenyl-imidazo[1,2-a]pyrazin-3-yl)-amine]: the EphB4 growth restoration entry at EphB4 is “++”. At EphA2, the EphA2 growth restoration result is given as “−”. Besides, on EGFR (L858R), the “EGFR (L858R) growth restoration” value is given as “(+)”.
The corresponding values for `CC(=O)Nc1ccc(-c2nc3c(C)nccn3c2Nc2cccc(Cl)c2)cc1` [compound 33, N-{4-[3-(3-Chloro-phenylamino)-8-methyl-imidazo[1,2-a]pyrazin-2-yl]-phenyl}-acetamide] are “+++”, “+” and “(+)”.
Take `c1ccc(Nc2c(-c3ccc(N4CCOCC4)cc3)nc3cnccn23)cc1` [compound 38, [2-(4-Morpholin-4-yl-phenyl)-imidazo[1,2-a]pyrazin-3-yl]-phenyl-amine]: the EphB4 growth restoration entry on EphB4 was “++”. At EphA2, the EphA2 growth restoration entry was “+”. Besides, the “EGFR (L858R) growth restoration” value at EGFR (L858R) is on record as “(+)”.
For `COc1cccc(-c2nc3c(C)nccn3c2Nc2cccc(C)c2)c1` [compound 42, [2-(3-Methoxy-phenyl)-8-methyl-imidazo[1,2-a]pyrazin-3-yl]-m-tolyl-amine], in that order: “++”, “+” and “(+)”.
The corresponding values for `COc1cccc(-c2nc3c(C)nccn3c2Nc2cccc(Cl)c2)c1` [compound 48, (3-Chloro-phenyl)-[2-(3-methoxy-phenyl)-8-methyl-imidazo[1,2-a]pyrazin-3-yl]-amine] are “++”, “+” and “(+)”.
